Results taken from PubChem BioAssay (NCI).
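Method: 48-hour compound exposure of cells in 96-well plates, five concentrations, linear interpolation of endpoints. GI50 is the concentration that inhibits growth by half. TGI is the concentration that stops growth completely.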

Key:
Test in all cases: inhibition of tumour cell growth, NCI panel, 48 h
NCI-H226 lung = tested on: NCI-H226 lung
NCI-H23 lung = tested on: NCI-H23 lung
NCI-H460 lung = tested on: NCI-H460 lung
NCI-H522 lung = tested on: NCI-H522 lung
NCI/ADR-RES ovarian = tested on: NCI/ADR-RES ovarian
OVCAR-3 ovarian = tested on: OVCAR-3 ovarian
OVCAR-4 ovarian = tested on: OVCAR-4 ovarian
OVCAR-5 ovarian = tested on: OVCAR-5 ovarian
OVCAR-8 ovarian = tested on: OVCAR-8 ovarian
PC-3 prostate = tested on: PC-3 prostate
RPMI-8226 leukemia = tested on: RPMI-8226 leukemia
RXF 393 renal = tested on: RXF 393 renal
SF-268 CNS = tested on: SF-268 CNS
SF-295 CNS = tested on: SF-295 CNS
SF-539 CNS = tested on: SF-539 CNS
SK-MEL-2 melanoma = tested on: SK-MEL-2 melanoma
SK-MEL-28 melanoma = tested on: SK-MEL-28 melanoma
SK-MEL-5 melanoma = tested on: SK-MEL-5 melanoma
SK-OV-3 ovarian = tested on: SK-OV-3 ovarian
SN12C renal = tested on: SN12C renal
SNB-19 CNS = tested on: SNB-19 CNS
SNB-75 CNS = tested on: SNB-75 CNS
SR leukemia = tested on: SR leukemia
SW-620 colon = tested on: SW-620 colon
T-47D breast = tested on: T-47D breast
TK-10 renal = tested on: TK-10 renal
U251 CNS = tested on: U251 CNS
UACC-257 melanoma = tested on: UACC-257 melanoma
UACC-62 melanoma = tested on: UACC-62 melanoma
UO-31 renal = tested on: UO-31 renal

OCCCNc1oc(-c2ccccc2)nc1[P+](c1ccccc1)(c1ccccc1)c1ccccc1
TGI (NCI-H226 lung): 9.8 µM | GI50 (NCI-H23 lung): 3.02 µM | TGI (NCI-H23 lung): 12.5 µM | GI50 (NCI-H460 lung): 2.61 µM | TGI (NCI-H460 lung): 11.3 µM | GI50 (NCI-H522 lung): 1.76 µM | TGI (NCI-H522 lung): 7.82 µM | GI50 (NCI/ADR-RES ovarian): > 100 µM | TGI (NCI/ADR-RES ovarian): > 100 µM | GI50 (OVCAR-3 ovarian): 1.44 µM | TGI (OVCAR-3 ovarian): 8.15 µM | GI50 (OVCAR-4 ovarian): 2.37 µM | TGI (OVCAR-4 ovarian): 15.7 µM | GI50 (OVCAR-5 ovarian): 3.42 µM | TGI (OVCAR-5 ovarian): 15.5 µM | GI50 (OVCAR-8 ovarian): 2.84 µM | TGI (OVCAR-8 ovarian): 10.7 µM | GI50 (PC-3 prostate): 1.6 µM | TGI (PC-3 prostate): 9 µM | GI50 (RPMI-8226 leukemia): 0.41 µM | TGI (RPMI-8226 leukemia): 10.2 µM | GI50 (RXF 393 renal): 1.23 µM | TGI (RXF 393 renal): 5.79 µM | GI50 (SF-268 CNS): 2.76 µM | TGI (SF-268 CNS): 11.8 µM | GI50 (SF-295 CNS): 3.02 µM | TGI (SF-295 CNS): 10.5 µM | GI50 (SF-539 CNS): 3.86 µM | TGI (SF-539 CNS): 14.4 µM | GI50 (SK-MEL-2 melanoma): 2.49 µM | TGI (SK-MEL-2 melanoma): 6.46 µM | GI50 (SK-MEL-28 melanoma): 2.09 µM | TGI (SK-MEL-28 melanoma): 11 µM | GI50 (SK-MEL-5 melanoma): 1.15 µM | TGI (SK-MEL-5 melanoma): 2.38 µM | GI50 (SK-OV-3 ovarian): 2.34 µM | TGI (SK-OV-3 ovarian): 8.1 µM | GI50 (SN12C renal): 2.61 µM | TGI (SN12C renal): 7.59 µM | GI50 (SNB-19 CNS): 2.15 µM | TGI (SNB-19 CNS): 7.25 µM | GI50 (SNB-75 CNS): 1.3 µM | TGI (SNB-75 CNS): 5.38 µM | GI50 (SR leukemia): 3.43 µM | TGI (SR leukemia): 16.1 µM | GI50 (SW-620 colon): 3.29 µM | TGI (SW-620 colon): 15.2 µM | GI50 (T-47D breast): 1.26 µM | TGI (T-47D breast): 6.72 µM | GI50 (TK-10 renal): 3.62 µM | TGI (TK-10 renal): 16.3 µM | GI50 (U251 CNS): 2.67 µM | TGI (U251 CNS): 11.7 µM | GI50 (UACC-257 melanoma): 1.98 µM | TGI (UACC-257 melanoma): 6.1 µM | GI50 (UACC-62 melanoma): 1.38 µM | TGI (UACC-62 melanoma): 3.85 µM | GI50 (UO-31 renal): 15.7 µM | TGI (UO-31 renal): 33.2 µM
